From PMC7606800 (The Science of the total environment, 2020)

Molecular target: NfnB (PpNfnB) (Pseudomonas putida, UniProt Q88K59)
Test: nitroreduction, HPLC-ICP-MS
Format: biochemical
Settings: 4 uM substrate, 1 uM enzyme, 0.2 mM NADPH, 25 uM FMN, pH 7.0, 37 °C

For `O=[N+]([O-])c1ccc([As](=O)(O)O)cc1` [Nit(V), 4-nitrophenylarsonic acid], the “nitroreduction, HPLC-ICP-MS” value was “NfnB also reduces Nit(V) to p-ASA(V)”.
